Experimental data as given in patent publication US7514443B2, “Substituted pyrazolo[1,5-a]pyrimidines as inhibitors of metabotropic glutamate receptors” (Hoffmann-La Roche Inc., priority 2003, dated 2009).

Key:
rat mGlu2 receptor = target: T1, rat mGlu2 receptor (Rattus norvegicus, UniProt P31421); experiment: [3H]-LY354740 binding on mGlu2 transfected CHO cell membranes; settings: inhibition of 10 nM [3H]-LY354740 binding, membranes of mGlu2 transfected CHO cells, room temperature, 1 hour; read-out: mGluR2 Ki
T1 construct: expressed in transfected cells; membranes prepared from them
Description: [^3H]-LY354740 Binding on mGlu2 Transfected CHO Cell Membranes
Transfection and cell culture: cDNA encoding the rat mGlu2 receptor protein in pBluescript II was subcloned into the eukaryotic expression vector pcDNA I-amp from Invitrogen (NV Leek, The Netherlands). This vector construct (pcD1mGR2) was co-transfected with a psvNeo plasmid encoding the gene for neomycin resistance, into CHO cells by a modified calcium phosphate method described by Chen & Okayama (1988). The cells were maintained in Dulbecco's Modified Eagle medium with reduced L-glutamine (2 mM final concentration) and 10% dialyzed foetal calf serum from Gibco BRL (Basel, Switzerland). Selection was made in the presence of G-418 (1000 μg/ml final). Clones were identified by reverse transcription of 5 μg total RNA, follow by PCR using mGlu2 receptor specific primers 5′-[…]-3′ (SEQ ID NO: 1) and 5′-[…]-3′ (SEQ ID NO:2) in 60 mM Tris HCl (pH 10), 15 mM (NH4)2SO4, 2 mM MgCl2, 25 units/ml Taq Polymerase with 30 cycles annealing at 60° C. for 1 min., extension at 72° C. for 30 s, and 1 min. 95° C. denaturation.
Membrane preparation: Cells, cultured as above, were harvested and washed three times with cold PBS and frozen at −80° C. The pellet was resuspended in cold 20 mM HEPES-NaOH buffer containing 10 mM EDTA (pH 7.4), and homogenized with a polytron (Kinematica, AG, Littau, Switzerland) for 10 s at 10 000 rpm. After centrifugation for 30 min. at 4° C., the pellet was washed once with the same buffer, and once with cold 20 mM HEPES-NaOH buffer containing 0.1 mM EDTA, (pH 7.4). Protein content was measured using the Pierce method (Socochim, Lausanne, Switzerland) using bovine serum albumin as standard.
[^3H]-LY354740 binding: After thawing, the membranes were resuspended in cold 50 mM Tris-HCl buffer containing 2 mM MgCl2 and 2 mM CaCl2, (pH 7) (binding buffer). The final concentration of the membranes in the assays was 25 μg protein/ml. Inhibition experiments were performed with membranes incubated with 10 nM [^3H]-LY354740 at room temperature, for 1 hour, in the presence of various concentrations of the compound to be tested. Following the incubations, membranes were filtered onto Whatmann GF/C glass fiber filters and washed 5 times with cold binding buffer. Non specific binding was measured in the presence of 10 μM DCG IV. After transfer of the filters into plastic vials containing 10 ml of Ultima-gold scintillation fluid (Packard, Zürich, Switzerland), the radioactivity was measured by liquid scintillation in a Tri-Carb 2500 TR counter (Packard, Zürich, Switzerland).
Data analysis: The inhibition curves were fitted with a four parameter logistic equation giving IC50 values, and Hill coefficients.

T1 sequence (P31421 19-872): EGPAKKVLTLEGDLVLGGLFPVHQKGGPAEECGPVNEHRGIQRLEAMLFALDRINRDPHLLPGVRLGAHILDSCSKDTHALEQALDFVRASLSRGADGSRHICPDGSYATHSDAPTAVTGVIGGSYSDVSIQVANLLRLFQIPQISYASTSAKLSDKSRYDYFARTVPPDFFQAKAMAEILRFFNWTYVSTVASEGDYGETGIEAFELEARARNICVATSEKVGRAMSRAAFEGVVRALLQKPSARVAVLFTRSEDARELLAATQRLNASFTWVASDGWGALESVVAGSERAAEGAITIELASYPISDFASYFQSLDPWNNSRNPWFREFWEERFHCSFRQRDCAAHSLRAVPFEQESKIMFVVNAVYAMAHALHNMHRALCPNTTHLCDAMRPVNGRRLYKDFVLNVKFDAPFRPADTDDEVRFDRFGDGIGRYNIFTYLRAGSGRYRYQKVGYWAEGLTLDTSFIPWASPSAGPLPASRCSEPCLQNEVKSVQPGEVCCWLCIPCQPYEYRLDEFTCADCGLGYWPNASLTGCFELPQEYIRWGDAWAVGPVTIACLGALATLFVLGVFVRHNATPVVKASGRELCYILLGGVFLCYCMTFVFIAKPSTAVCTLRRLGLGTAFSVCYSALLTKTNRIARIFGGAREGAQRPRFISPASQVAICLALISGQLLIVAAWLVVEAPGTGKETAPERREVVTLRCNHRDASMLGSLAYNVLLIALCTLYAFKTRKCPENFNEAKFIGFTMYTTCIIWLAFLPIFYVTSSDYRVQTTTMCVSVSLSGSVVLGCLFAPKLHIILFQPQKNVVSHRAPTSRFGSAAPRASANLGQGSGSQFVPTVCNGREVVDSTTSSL

Structure (SMILES)	Ki (rat mGlu2 receptor)	melting point
Cc1cc(-c2cc(C(F)(F)F)n3nc(CC#N)c(C#N)c3n2)ccc1Cl [Example 3.2, 5-(4-Chloro-3-methyl-phenyl)-2-cyanomethyl-7-trifluoromethyl-pyrazolo[1,5-a]pyrimidine-3-carbonitrile]	76 nM	238 °C
FC(F)(F)COc1ccc(-c2cc(C(F)(F)F)n3ncc(-c4ccncc4)c3n2)cc1C(F)(F)F [Example 4.43, 5-[4-(2,2,2-Trifluorothoxy)-3-trifluoromethyl-phenyl]-3-pyridin-4-yl-7-trifluoromethyl-pyrazolo[1,5-a]pyrimidine]	48 nM	247 °C
Cc1cc(-c2cnn3c(C(F)(F)F)cc(-c4ccc(C(F)(F)F)c(F)c4)nc23)ccn1 [Example 4.35, 5-(3-Fluoro-4-trifluoromethyl-phenyl)-3-(2-methyl-pyridin-4-yl)-7-trifluoromethyl-pyrazolo[1,5-a]pyrimidine]	45 nM	250 °C
Cc1cc(-c2cnn3c(C(F)(F)F)cc(-c4cccc(C(F)(F)F)c4)nc23)cc(C)n1 [Example 4.24, 5-(3-Trifluoromethyl-phenyl)-3-(2,6-dimethyl-pyridin-4-yl)-7-trifluoromethyl-pyrazolo[1,5-a]pyrimidine]	43 nM	236 °C
N#Cc1cnn2c(C(F)(F)F)cc(-c3ccc(F)c(C(F)(F)F)c3)nc12 [Example 1.13, 5-(4-Fluoro-3-trifluoromethyl-phenyl)-7-trifluoromethyl-pyrazolo[1,5-a]pyrimidine-3-carbonitrile]	43 nM	204 °C
Cc1cc(-c2cc(C(F)(F)F)n3ncc(-c4cc[n+]([O-])c(C)c4)c3n2)ccc1Cl [Example 7.1, 5-(4-Chloro-3-methyl-phenyl)-3-(2-methyl-1-oxy-pyridin-4-yl)-7-trifluoromethyl-pyrazolo[1,5-a]pyrimidine]	43.9 nM	–
N#Cc1ncn2c(C(F)(F)F)cc(-c3ccc(Cl)c(Cl)c3)nc12 [Example 5.20, 5-(3,4-Dichloro-phenyl)-7-trifluoromethyl-imidazo[1,5-a]pyrimidine-8-carbonitrile]	43 nM	219 °C
Cc1nn2c(C(F)(F)F)cc(-c3cccc(C(F)(F)F)c3)nc2c1C#N [Example 2.2, 2-Methyl-5-(3-trifluoromethyl-phenyl)-7-trifluoromethyl-pyrazolo[1,5-a]pyrimidine-3-carbonitrile]	72 nM	215 °C
N#Cc1c(-c2ccc(OCC(F)(F)F)c(C(F)(F)F)c2)nn2c(C(F)(F)F)ccnc12 [Example 1.19, 2-(4-Trifluoroethoxy-3-trifluoromethyl-phenyl)-4-trifluoromethyl-pyrazolo[1,5-a]pyrimidine-8-carbonitrile]	32 nM	–
Cc1ccc(-c2cc(C(F)(F)F)n3cnc(C#N)c3n2)cc1C(F)(F)F [Example 5.22, 2-(4-Methyl-3-trifluoromethyl-phenyl)-4-trifluoromethyl-imidazo[1,5-a]pyrimidine-8-carbonitrile]	–	220 °C
FC(F)(F)c1cc(-c2ccc(Cl)c(Cl)c2)nc2c(-c3cccnc3)cnn12 [Example 4.9, 5-(3,4-Dichloro-phenyl)-3-pyridin-3-yl-7-trifluoromethyl-pyrazolo[1,5-a]pyrimidine]	47 nM	224 °C
Cc1cc(-c2cc(C(F)(F)F)n3ncc(-c4ccnc(CO)c4)c3n2)ccc1C(F)(F)F [Example 6.2, 5-(3-Methyl-4-trifluoromethyl-phenyl)-3-(2-hydroxymethyl-pyridin-4-yl)-7-trifluoromethyl-pyrazolo[1,5-a]pyrimidine]	–	231 °C
FC(F)(F)c1ccc(-c2cc(C(F)(F)F)n3ncc(-c4ccccn4)c3n2)cc1 [Example 4.12, 5-(4-Trifluoromethyl-phenyl)-3-pyridin-2-yl-7-trifluoromethyl-pyrazolo[1,5-a]pyrimidine]	–	202 °C
Cc1cc(-c2cc(C(F)(F)F)n3ncc(-c4ccncc4)c3n2)ccc1C(F)(F)F [Example 4.37, 5-(3-Methyl-4-trifluoromethyl-phenyl)-3-pyridin-4-yl-7-trifluoromethyl-pyrazolo[1,5-a]pyrimidine]	–	227 °C
FC(F)(F)c1cccc(-c2cc(C(F)(F)F)n3ncc(-c4ccncc4)c3n2)c1 [Example 4.16, 5-(3-Trifluoromethyl-phenyl)-3-pyridin-4-yl-7-trifluoromethyl-pyrazolo[1,5-a]pyrimidine]	–	241 °C
Cc1cc(-c2ncn3c(C(F)(F)F)cc(-c4ccc(Cl)cc4)nc23)ccn1 [Example 8.20, 2-(4-Chloro-phenyl)-8-(2-methyl-pyridin-4-yl)-4-trifluoromethyl-imidazo[1,5-a]pyrimidine]	–	232 °C
N#Cc1ncn2c(C(F)(F)F)cc(-c3ccc(Cl)cc3Cl)nc12 [Example 5.7, 2-(2,4-Dichloro-phenyl)-4-trifluoromethyl-imidazo[1,5-a]pyrimidine-8-carbonitrile]	–	139 °C
Cc1cc(-c2cnn3c(C(F)(F)F)cc(-c4ccc(Br)cc4)nc23)ccn1 [Example 4.56, 5-(4-Bromo-phenyl)-3-(2-methyl-pyridin-4-yl)-7-trifluoromethyl-pyrazolo[1,5-a]pyrimidine]	–	226 °C
Cc1cc(-c2cnn3c(C(F)(F)F)cc(-c4ccc(C(F)(F)F)cc4)nc23)cc(C)n1 [Example 4.23, 5-(4-Trifluoromethyl-phenyl)-3-(2,6-dimethyl-pyridin-4-yl)-7-trifluoromethyl-pyrazolo[1,5-a]pyrimidine]	–	257 °C
Cc1nn2c(C(F)(F)F)cc(-c3ccc(F)c(Cl)c3)nc2c1C#N [Example 2.4, 5-(3-Chloro-4-fluoro-phenyl)-2-methyl-7-trifluoromethyl-pyrazolo[1,5-a]pyrimidine-3-carbonitrile]	–	196 °C
Cc1cc(-c2cc(C(F)(F)F)n3ncc(-c4ccccn4)c3n2)ccc1Cl [Example 4.5, 5-(4-Chloro-3-methyl-phenyl)-3-pyridin-2-yl-7-trifluoromethyl-pyrazolo[1,5-a]pyrimidine]	–	183 °C
FC(F)(F)c1cccc(-c2cc(C(F)(F)F)n3cnc(-c4cccnc4)c3n2)c1 [Example 8.5, 8-Pyridin-3-yl-4-trifluoromethyl-2-(3-trifluoromethyl-phenyl)-imidazo[1,5-a]pyrimidine]	–	194 °C
